Measurements as given in ChEMBL document CHEMBL1201862, “PubChem BioAssay data set” (2004).
Active and inactive are the calls of the source.

Columns and labels:
[1] = biological target: T1, Carboxy-terminal domain RNA polymerase II polypeptide A small phosphatase 1 (Homo sapiens, UniProt Q9GZU7); assay: inhibitors of CTDSP1, concentration-response testing, biochemical assay, absorbance-based, actives from ultra-high-throughput screening (AID 540297); type: functional
T1 sequence (Q9GZU7 whole entry): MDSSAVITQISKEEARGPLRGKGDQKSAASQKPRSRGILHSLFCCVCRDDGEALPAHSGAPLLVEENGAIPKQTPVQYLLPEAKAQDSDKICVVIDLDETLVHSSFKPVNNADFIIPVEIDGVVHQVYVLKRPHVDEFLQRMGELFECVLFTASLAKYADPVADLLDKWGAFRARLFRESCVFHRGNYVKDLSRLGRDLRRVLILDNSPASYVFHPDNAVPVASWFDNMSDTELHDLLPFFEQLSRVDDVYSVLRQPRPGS

[2] = biological target: T2, Short transient receptor potential channel 4 (Mus musculus, UniProt Q9QUQ5); assay: mouse TRPC4 channel activators, dose response, cell-based, HEK293 TRPC4/mu-opioid, Fluo-4 calcium (AID 434937); type: functional
T2 sequence (Q9QUQ5 whole entry): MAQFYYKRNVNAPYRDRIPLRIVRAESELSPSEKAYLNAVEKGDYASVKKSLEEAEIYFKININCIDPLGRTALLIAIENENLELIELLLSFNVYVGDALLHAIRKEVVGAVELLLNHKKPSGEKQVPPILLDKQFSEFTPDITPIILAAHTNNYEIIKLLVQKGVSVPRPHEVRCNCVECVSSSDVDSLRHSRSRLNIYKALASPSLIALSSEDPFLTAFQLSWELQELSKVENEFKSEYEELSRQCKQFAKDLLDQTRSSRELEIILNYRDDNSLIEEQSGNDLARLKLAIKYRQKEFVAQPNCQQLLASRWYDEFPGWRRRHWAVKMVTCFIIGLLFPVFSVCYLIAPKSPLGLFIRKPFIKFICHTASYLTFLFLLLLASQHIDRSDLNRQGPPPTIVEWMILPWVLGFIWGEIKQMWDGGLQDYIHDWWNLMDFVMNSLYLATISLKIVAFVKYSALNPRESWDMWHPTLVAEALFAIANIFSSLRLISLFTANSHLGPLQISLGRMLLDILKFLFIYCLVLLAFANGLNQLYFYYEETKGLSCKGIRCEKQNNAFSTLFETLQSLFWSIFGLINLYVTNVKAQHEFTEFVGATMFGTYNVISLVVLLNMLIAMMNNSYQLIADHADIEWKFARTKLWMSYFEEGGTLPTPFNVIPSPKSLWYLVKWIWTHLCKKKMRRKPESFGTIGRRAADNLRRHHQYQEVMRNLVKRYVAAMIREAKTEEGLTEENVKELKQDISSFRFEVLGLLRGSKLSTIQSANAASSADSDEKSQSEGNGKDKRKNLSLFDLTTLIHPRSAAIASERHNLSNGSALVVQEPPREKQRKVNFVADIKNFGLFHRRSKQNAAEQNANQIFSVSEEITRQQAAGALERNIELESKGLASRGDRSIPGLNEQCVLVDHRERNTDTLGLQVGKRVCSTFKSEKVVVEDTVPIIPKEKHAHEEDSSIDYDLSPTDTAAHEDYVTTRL

[3] = biological target: DNA dC->dU-editing enzyme APOBEC-3A (Homo sapiens, UniProt P31941); assay: Dose Response confirmation of small molecule APOBEC3A DNA Deaminase Inhibitors via a fluorescence-based single-stranded DNA deaminase assay. [Related pubchem assays (depositor defined):AID493011, AID493024]; type: functional
Chain of DNA dC->dU-editing enzyme APOBEC-3A (P31941 whole entry): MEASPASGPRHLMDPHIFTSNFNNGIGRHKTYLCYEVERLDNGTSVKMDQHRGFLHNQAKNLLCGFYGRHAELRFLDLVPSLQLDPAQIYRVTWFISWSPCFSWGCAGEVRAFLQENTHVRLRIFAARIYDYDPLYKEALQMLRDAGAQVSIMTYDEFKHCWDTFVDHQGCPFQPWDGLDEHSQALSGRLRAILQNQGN

[4] = biological target: DNA dC->dU-editing enzyme APOBEC-3G (Homo sapiens, UniProt Q9HC16); type: functional;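 note: Dose-response counterscreen measuring inhibition of APOBEC3G DNA deaminase activity, run while confirming APOBEC3A inhibitors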
Chain of DNA dC->dU-editing enzyme APOBEC-3G (Q9HC16 whole entry): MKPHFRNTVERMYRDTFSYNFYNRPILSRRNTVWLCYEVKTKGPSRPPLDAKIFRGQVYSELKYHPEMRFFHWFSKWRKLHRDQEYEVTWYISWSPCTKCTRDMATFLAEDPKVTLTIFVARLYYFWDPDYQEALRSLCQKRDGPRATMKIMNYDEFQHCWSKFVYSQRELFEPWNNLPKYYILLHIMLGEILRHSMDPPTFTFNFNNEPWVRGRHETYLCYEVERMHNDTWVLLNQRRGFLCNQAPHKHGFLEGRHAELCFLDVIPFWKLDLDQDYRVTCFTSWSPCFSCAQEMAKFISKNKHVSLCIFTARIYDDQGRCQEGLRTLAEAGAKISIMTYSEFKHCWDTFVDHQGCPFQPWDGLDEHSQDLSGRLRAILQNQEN

[5] = intracellular Trypanosoma cruzi inhibitors in host cells – cell-based, plate reader, cherry-pick samples, set 3, dose response (AID 651818); type: functional;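 note: compounds incubated with infected cells for about four days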
[6] = microbe, parasite or virus in culture; type: functional; settings: Mycobacterium tuberculosis
[7] = Counterscreen for AddAB inhibitors: absorbance-based bacterial cell-based high throughput dose response assay for inhibitors of bacterial viability. [Related pubchem assays (depositor defined):AID435030, AID449728, AID449731, AID488942, AID488955, AID488956]; type: functional
Exodeoxyribonuclease V = biological target: T3, Exodeoxyribonuclease V (Escherichia coli (strain K12), UniProt P04993+P07648+P08394); assay: E. coli RecBCD inhibitors, dose response, counter-screen for AddAB inhibitor project, absorbance, V66 E. coli, mutant T4 phage (AID 492957); type: functional, cell-based, Escherichia coli str. K-12 substr. MG1655
T3 sequence (P04993 whole entry): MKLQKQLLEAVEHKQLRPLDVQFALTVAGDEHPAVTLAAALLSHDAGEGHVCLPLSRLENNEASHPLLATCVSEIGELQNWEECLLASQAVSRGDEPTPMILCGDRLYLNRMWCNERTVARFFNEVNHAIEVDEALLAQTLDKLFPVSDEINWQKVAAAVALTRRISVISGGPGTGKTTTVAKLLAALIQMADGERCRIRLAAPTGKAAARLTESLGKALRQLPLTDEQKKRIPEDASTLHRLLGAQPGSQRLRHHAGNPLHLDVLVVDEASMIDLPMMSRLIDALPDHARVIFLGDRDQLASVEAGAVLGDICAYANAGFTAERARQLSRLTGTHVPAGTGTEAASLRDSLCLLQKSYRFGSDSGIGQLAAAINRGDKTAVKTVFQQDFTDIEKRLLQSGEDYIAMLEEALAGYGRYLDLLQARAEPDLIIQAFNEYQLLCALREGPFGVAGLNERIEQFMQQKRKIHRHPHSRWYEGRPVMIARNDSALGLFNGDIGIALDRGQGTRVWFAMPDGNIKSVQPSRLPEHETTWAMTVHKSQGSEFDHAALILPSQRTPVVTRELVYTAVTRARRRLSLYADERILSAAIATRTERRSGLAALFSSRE
T3 sequence (P07648 whole entry): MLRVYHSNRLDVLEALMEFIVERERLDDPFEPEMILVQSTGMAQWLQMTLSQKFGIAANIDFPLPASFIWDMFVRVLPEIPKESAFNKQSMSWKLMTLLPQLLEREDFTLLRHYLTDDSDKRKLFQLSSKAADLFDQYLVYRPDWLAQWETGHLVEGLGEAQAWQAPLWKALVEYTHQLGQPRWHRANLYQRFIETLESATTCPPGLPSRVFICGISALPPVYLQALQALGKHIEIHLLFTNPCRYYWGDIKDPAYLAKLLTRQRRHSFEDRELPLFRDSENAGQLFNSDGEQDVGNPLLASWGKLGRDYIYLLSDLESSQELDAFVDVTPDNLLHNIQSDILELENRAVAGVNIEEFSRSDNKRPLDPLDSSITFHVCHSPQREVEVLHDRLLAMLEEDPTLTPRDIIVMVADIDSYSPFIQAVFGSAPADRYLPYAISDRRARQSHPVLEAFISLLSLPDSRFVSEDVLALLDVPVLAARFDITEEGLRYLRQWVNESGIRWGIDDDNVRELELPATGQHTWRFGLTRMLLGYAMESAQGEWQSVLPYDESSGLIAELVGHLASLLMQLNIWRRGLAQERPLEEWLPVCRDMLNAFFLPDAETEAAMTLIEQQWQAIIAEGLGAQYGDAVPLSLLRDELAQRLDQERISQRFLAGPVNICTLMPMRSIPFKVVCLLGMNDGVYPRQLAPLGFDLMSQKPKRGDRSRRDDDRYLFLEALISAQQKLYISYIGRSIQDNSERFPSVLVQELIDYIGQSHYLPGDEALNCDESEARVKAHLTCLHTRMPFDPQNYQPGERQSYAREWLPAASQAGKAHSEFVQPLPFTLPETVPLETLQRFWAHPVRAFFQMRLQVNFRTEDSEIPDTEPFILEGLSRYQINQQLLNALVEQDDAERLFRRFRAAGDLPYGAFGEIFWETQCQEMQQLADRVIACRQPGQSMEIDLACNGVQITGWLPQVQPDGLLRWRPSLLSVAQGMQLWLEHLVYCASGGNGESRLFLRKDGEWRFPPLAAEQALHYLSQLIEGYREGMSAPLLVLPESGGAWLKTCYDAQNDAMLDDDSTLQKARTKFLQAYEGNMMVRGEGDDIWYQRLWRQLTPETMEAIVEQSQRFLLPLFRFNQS
T3 sequence (P08394 whole entry): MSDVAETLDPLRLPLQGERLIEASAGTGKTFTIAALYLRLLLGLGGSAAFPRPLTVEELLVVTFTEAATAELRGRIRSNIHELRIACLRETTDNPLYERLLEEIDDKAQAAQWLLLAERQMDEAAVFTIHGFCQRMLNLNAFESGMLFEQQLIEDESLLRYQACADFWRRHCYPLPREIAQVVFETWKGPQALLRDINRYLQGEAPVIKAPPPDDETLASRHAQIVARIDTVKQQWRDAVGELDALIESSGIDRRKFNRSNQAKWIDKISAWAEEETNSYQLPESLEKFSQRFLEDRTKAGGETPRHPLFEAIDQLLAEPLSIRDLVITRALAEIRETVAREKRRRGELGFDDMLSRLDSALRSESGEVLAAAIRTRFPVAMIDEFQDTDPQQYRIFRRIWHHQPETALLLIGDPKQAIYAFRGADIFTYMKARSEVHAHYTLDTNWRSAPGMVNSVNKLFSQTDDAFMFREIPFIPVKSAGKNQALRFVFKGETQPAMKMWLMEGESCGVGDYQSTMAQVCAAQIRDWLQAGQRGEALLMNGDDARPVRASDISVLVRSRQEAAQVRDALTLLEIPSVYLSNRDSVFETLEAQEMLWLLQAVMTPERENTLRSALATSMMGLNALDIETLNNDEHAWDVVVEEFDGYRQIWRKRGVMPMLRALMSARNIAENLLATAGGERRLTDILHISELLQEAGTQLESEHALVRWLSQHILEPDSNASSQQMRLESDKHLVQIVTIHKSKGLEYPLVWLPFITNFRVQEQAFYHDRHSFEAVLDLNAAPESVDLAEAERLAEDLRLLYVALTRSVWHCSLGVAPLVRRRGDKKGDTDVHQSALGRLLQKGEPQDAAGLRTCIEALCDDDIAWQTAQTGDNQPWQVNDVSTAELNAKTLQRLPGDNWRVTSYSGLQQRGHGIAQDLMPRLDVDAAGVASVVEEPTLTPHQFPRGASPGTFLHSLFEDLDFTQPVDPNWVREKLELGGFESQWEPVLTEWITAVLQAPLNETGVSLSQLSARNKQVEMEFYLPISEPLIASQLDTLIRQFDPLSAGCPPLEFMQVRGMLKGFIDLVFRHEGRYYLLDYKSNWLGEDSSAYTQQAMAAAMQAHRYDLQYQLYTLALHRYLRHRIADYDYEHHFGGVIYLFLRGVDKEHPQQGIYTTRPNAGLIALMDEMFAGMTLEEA

[8] = biological target: Heat shock protein HSP 90-alpha (Homo sapiens, UniProt P07900); type: functional, organism-based
[9] = biological target: T2, Short transient receptor potential channel 4; assay: mouse TRPC4 channel inhibitors, dose response, cell-based, HEK293 TRPC4/mu-opioid, Fluo-4 calcium (AID 434942); type: functional;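 note: potency of inhibitors blocking the TRPC4 calcium response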

## COC(=O)Cn1c(=O)c2c(n(Cc3ccccc3)c1=O)=N/C(=C/c1ccc(Br)cc1)C=2O
[1]
  IC50: 5.15 µM (active)

## COc1cc(OC)c(CN2CCC(Cc3ccccc3)CC2)cc1Br
[2]
  EC50: 2.66 µM (active)

## O=C(Nc1nc2c(s1)CCCC2)C1CCCN1C(=O)c1cccs1 (stereo unspecified)
[3]
  IC50: 10 µM (active)
[4]
  IC50: 15.8 µM (active)

## C[C@@H]1CCCCO[C@H](CN(C)Cc2ccc(Cl)c(Cl)c2)[C@@H](C)CN([C@H](C)CO)C(=O)c2cc(NS(=O)(=O)c3ccc(F)cc3)ccc2O1
[5]
  AC50: 4.79 µM (active)

## CCOc1ccccc1OCC(=O)Nc1cc(S(=O)(=O)N2CCCCC2)ccc1N1CCN(CC)CC1
[3]
  IC50: 5.85 µM (active)
[4]
  IC50: 6.44 µM (active)
[2]
  EC50: 4.22 µM (active)

## C[C@@H]1CCCCO[C@@H](CN(C)Cc2ccc(Cl)c(Cl)c2)[C@@H](C)CN([C@H](C)CO)C(=O)c2cc(NC(=O)Nc3ccc4c(c3)OCO4)ccc2O1
[5]
  AC50: 3.68 µM (active)

## COc1ccc(S(=O)(=O)N(C)C[C@@H]2Oc3c(NS(=O)(=O)c4ccccc4)cccc3C(=O)N([C@@H](C)CO)C[C@@H]2C)cc1
[5]
  AC50: 12.9 µM (active)

## C[C@H]1CN([C@@H](C)CO)C(=O)c2cccc(NC(=O)c3nc4ccccc4s3)c2O[C@H]1CN(C)Cc1ccc(C(=O)Nc2ccccc2N)cc1
[5]
  AC50: 2.97 µM (active)

## CCC(C)NC(=O)c1cn(CC)c2cc(N3CCN(C(=O)c4ccco4)CC3)c(F)cc2c1=O (stereo unspecified)
[6]
  CC50: > 40 µM (active)
[7]
  IC50: 22 µM (inactive)
Exodeoxyribonuclease V
  IC50: 89.9 µM (inactive)

## O=C(O)c1cn(-c2ccc(N3CCCC3)c(F)c2)c2c(F)c(F)c(F)cc2c1=O
[7]
  IC50: 64.9 µM (inactive)
[8]
  AC50: 4.37 µM (active)
Exodeoxyribonuclease V
  IC50: > 119 µM (inactive)

## Cc1cc(NS(=O)(=O)c2ccc(N)cc2)no1 [SULFAMETHOXAZOLE]
[7]
  IC50: 29.2 µM (inactive)
Exodeoxyribonuclease V
  IC50: > 119 µM (inactive)

## Cc1cc(Cl)ccc1N=C(S)NCc1ccccc1Cl
[7]
  IC50: > 119 µM (inactive)
Exodeoxyribonuclease V
  IC50: > 119 µM (inactive)

## Cc1ccc(C)c(OCCC(=O)OCC(=O)N2c3ccccc3NC(=O)C2(C)C)c1
[3]
  IC50: 11 µM (active)
[4]
  IC50: 10.4 µM (active)

## CCCCn1nc(NC(=O)COC)c2cc3ccc(C)cc3nc21
[3]
  IC50: 3.49 µM (active)
[4]
  IC50: 5 µM (active)

## O=C(COc1cccc([N+](=O)[O-])c1)N/N=C/c1ccco1
[1]
  IC50: 13.9 µM (active)

## CN(C)C(CNC(=O)C1CCN(S(=O)(=O)c2cccc(C(F)(F)F)c2)CC1)c1ccccc1 (stereo unspecified)
[2]
  EC50: 0.376 µM (active)
[9]
  EC50: 0.421 µM (active)

## COc1ccc(NC(=O)CSc2nnc(-c3ccc(F)cc3)o2)cn1
[7]
  IC50: > 119 µM (inactive)
Exodeoxyribonuclease V
  IC50: > 119 µM (inactive)

## Cc1ccc(C)c(NC(=O)CSc2sc3c(O)cc(=O)[nH]c3c2C#N)c1
[1]
  IC50: 6.09 µM (active)
